The NIST ThermoML archive (doi:10.1021/acs.jced.6b00121)

Test: xn = mol fraction of the nth substance listed
Details: 100 kPa, Liquid; for mass density: Vibrating tube method; for viscosity: Falling or rolling sphere viscometry

CCCCCCCCCCC [undecane] + CCCCCO
Details | mass density [kg/m3] | viscosity [mPa·s]
323.15 K, x1 = 0.0999 | 778.15 | –
323.15 K, x1 = 0.2 | 766.37 | –
323.15 K, x1 = 0.3026 | 756.27 | –
323.15 K, x1 = 0.4001 | 748.09 | –
323.15 K, x1 = 0.5022 | 740.84 | –
323.15 K, x1 = 0.5976 | 734.98 | –
323.15 K, x1 = 0.6984 | 729.62 | –
323.15 K, x1 = 0.801 | 724.97 | –
323.15 K, x1 = 0.8822 | 721.69 | –
323.15 K, x1 = 1 | 718.11 | –
328.15 K, x1 = 0.0999 | 774.23 | 1.336
328.15 K, x1 = 0.2 | 762.42 | 1.142
328.15 K, x1 = 0.3026 | 752.3 | 0.989
328.15 K, x1 = 0.4001 | 744.13 | 0.895
328.15 K, x1 = 0.5022 | 736.88 | 0.828
328.15 K, x1 = 0.5976 | 731.04 | 0.776
328.15 K, x1 = 0.6984 | 725.7 | 0.742
328.15 K, x1 = 0.801 | 721.07 | 0.714
328.15 K, x1 = 0.8822 | 717.84 | 0.702
328.15 K, x1 = 1 | 714.39 | 0.692
333.15 K, x1 = 0.0999 | 770.26 | 1.2
333.15 K, x1 = 0.2 | 758.42 | 1.035
333.15 K, x1 = 0.3026 | 748.29 | 0.903
333.15 K, x1 = 0.4001 | 740.12 | 0.825
333.15 K, x1 = 0.5022 | 732.89 | 0.767
333.15 K, x1 = 0.5976 | 727.07 | 0.723
333.15 K, x1 = 0.6984 | 721.76 | 0.694
333.15 K, x1 = 0.801 | 717.15 | 0.67
333.15 K, x1 = 0.8822 | 713.96 | 0.659
333.15 K, x1 = 1 | 710.68 | 0.651
338.15 K, x1 = 0.0999 | 766.24 | 1.082
338.15 K, x1 = 0.2 | 754.37 | 0.94
338.15 K, x1 = 0.3026 | 744.23 | 0.827
338.15 K, x1 = 0.4001 | 736.07 | 0.763
338.15 K, x1 = 0.5022 | 728.86 | 0.714
338.15 K, x1 = 0.5976 | 723.06 | 0.675
338.15 K, x1 = 0.6984 | 717.77 | 0.652
338.15 K, x1 = 0.801 | 713.2 | 0.63
338.15 K, x1 = 0.8822 | 710.06 | 0.621
338.15 K, x1 = 1 | 706.95 | 0.615
343.15 K, x1 = 0.0999 | 762.15 | 0.979
343.15 K, x1 = 0.2 | 750.25 | 0.857
343.15 K, x1 = 0.3026 | 740.12 | 0.76
343.15 K, x1 = 0.4001 | 731.98 | 0.708
343.15 K, x1 = 0.5022 | 724.77 | 0.666
343.15 K, x1 = 0.5976 | 719 | 0.633
343.15 K, x1 = 0.6984 | 713.75 | 0.613
343.15 K, x1 = 0.801 | 709.22 | 0.594
343.15 K, x1 = 0.8822 | 706.13 | 0.587
343.15 K, x1 = 1 | 703.22 | 0.58
348.15 K, x1 = 0.0999 | 758.01 | 0.889
348.15 K, x1 = 0.2 | 746.09 | 0.784
348.15 K, x1 = 0.3026 | 735.95 | 0.701
348.15 K, x1 = 0.4001 | 727.83 | 0.659
348.15 K, x1 = 0.5022 | 720.65 | 0.624
348.15 K, x1 = 0.5976 | 714.91 | 0.595
348.15 K, x1 = 0.6984 | 709.7 | 0.578
348.15 K, x1 = 0.801 | 705.21 | 0.561
348.15 K, x1 = 0.8822 | 702.19 | 0.556
348.15 K, x1 = 1 | 699.47 | 0.549
353.15 K, x1 = 0.0999 | 753.8 | 0.81
353.15 K, x1 = 0.2 | 741.87 | 0.72
353.15 K, x1 = 0.3026 | 731.74 | 0.649
353.15 K, x1 = 0.4001 | 723.64 | 0.615
353.15 K, x1 = 0.5022 | 716.49 | 0.585
353.15 K, x1 = 0.5976 | 710.78 | 0.56
353.15 K, x1 = 0.6984 | 705.61 | 0.545
353.15 K, x1 = 0.801 | 701.17 | 0.531
353.15 K, x1 = 0.8822 | 698.22 | 0.528
353.15 K, x1 = 1 | 695.72 | 0.522
358.15 K, x1 = 0.0999 | 749.51 | 0.744
358.15 K, x1 = 0.2 | 737.58 | 0.663
358.15 K, x1 = 0.3026 | 727.46 | 0.602
358.15 K, x1 = 0.4001 | 719.38 | 0.577
358.15 K, x1 = 0.5022 | 712.26 | 0.551
358.15 K, x1 = 0.5976 | 706.59 | 0.528
358.15 K, x1 = 0.6984 | 701.47 | 0.517
358.15 K, x1 = 0.801 | 697.1 | 0.504
358.15 K, x1 = 0.8822 | 694.22 | 0.502
358.15 K, x1 = 1 | 691.96 | 0.497
363.15 K, x1 = 0.0999 | 745.17 | 0.68
363.15 K, x1 = 0.2 | 733.23 | 0.614
363.15 K, x1 = 0.3026 | 723.13 | 0.56
363.15 K, x1 = 0.4001 | 715.08 | 0.542
363.15 K, x1 = 0.5022 | 708 | 0.519
363.15 K, x1 = 0.5976 | 702.37 | 0.5
363.15 K, x1 = 0.6984 | 697.3 | 0.49
363.15 K, x1 = 0.801 | 692.99 | 0.48
363.15 K, x1 = 0.8822 | 690.22 | 0.48
363.15 K, x1 = 1 | 688.18 | 0.475
